{"source": "patent US20110312513A1", "about": "“BIOMARKERS FOR PREDICTING SUSTAINED RESPONSE TO HCV TREATMENT” (ROCHE MOLECULAR SYSTEMS, INC., priority 2009, published 2011)", "key": {"[1]": {"test": "Phase II clinical trial of RO4588161: premature withdrawal for safety reasons", "format": "in vivo, human", "conditions": "among the 104 evaluable patients", "from_the_text": "A screening period (time from the first screening assessment to the first administration of test drug) of 35 days preceded the treatment portion of the trial (FIG. 1). The HCV genotype and HCV RNA titer of each patient was confirmed during the screening period and only treatment-naïve patients with HCV genotype-1 and HCV RNA titer ≧50,000 IU/mL were eligible for enrollment.\nOne hundred and seven male and female patients between 18 and 66 years of age were enrolled into the study."}, "HCV": {"test_system": "HCV", "conditions": "monotherapy; cited from earlier work"}}, "data": [{"smiles": "CC(C)C(=O)OC[C@@]1(N=[N+]=[N-])O[C@@H](n2ccc(N)nc2=O)[C@H](OC(=O)C(C)C)[C@@H]1OC(=O)C(C)C", "note": "[RO4588161, Isobutyric acid (2R,3S,4R,5R)-5-(4-amino-2-oxo-2H-pyrimidin-1-yl)-2-azido-3,4-bis-isobutyryloxy-tetrahydro-furan-2-ylmethyl ester]", "values": [{"measurement": "patients who prematurely withdrew for safety reasons from treatment", "setting": "[1]", "result": 43, "unit": "patients"}]}, {"smiles": "NC(=O)c1ncn([C@@H]2O[C@H](CO)[C@@H](O)[C@H]2O)n1", "note": "[ribavirin, 1-((2R,3R,4S,5R)-3,4-Dihydroxy-5-hydroxymethyl-tetrahydro-furan-2-yl)-1H-[1,2,4]triazole-3-carboxylic acid amide]", "values": [{"measurement": "patients who prematurely withdrew for safety reasons from treatment", "setting": "[1]", "result": 5, "unit": "patients"}, {"measurement": "effect on serum levels of HCV-RNA", "setting": "HCV", "result": "does not lower serum levels of HCV-RNA"}, {"measurement": "patients with serum amino transferase levels reduced to normal", "setting": "HCV", "result": 40, "unit": "%"}]}]}
